Experimental data taken from PubChem BioAssay AID1259407 (Chemical Carcinogenesis Research Information System (CCRIS), 2018).
Activity calls are given as the source filed them. How the calls were made is not given here.

Test system: CCRIS mutagenicity, Ames/micronucleus/aberration tests
Assay: CCRIS mutagenicity studies

Q: How did the mutagenic call (Test System: AMES SALMONELLA TYPHIMURIUM, Strain/Indicator: TA98, Metabolic Activation: S-9, Method: PREINCUBATION) turn out when Cc1cnc2cc3nc(C)n(C)c3c(C)c2n1 was run?
A: Its mutagenic call is “inactive; negative”.

Q: How did the mutagenic call (Test System: AMES SALMONELLA TYPHIMURIUM, Strain/Indicator: TA96(NR), Metabolic Activation: NONE, Method: STANDARD PLATE) turn out when O=C1NCCN1c1ncc([N+](=O)[O-])s1 was run?
A: Its mutagenic call is “inactive; negative”.

Q: And the mutagenic call (Test System: AMES SALMONELLA TYPHIMURIUM, Strain/Indicator: TA96(NRB), Metabolic Activation: NONE, Method: PREINCUBATION)?
A: The mutagenic call was “active; positive”.

Q: And the mutagenic call (Test System: AMES SALMONELLA TYPHIMURIUM, Strain/Indicator: TA96(NRB), Metabolic Activation: RAT, LIVER, S-9, AROCLOR 1254, Method: PREINCUBATION)?
A: The mutagenic call was “active; positive”.

Q: What about the mutagenic call (Test System: AMES SALMONELLA TYPHIMURIUM, Strain/Indicator: TA96(NRC), Metabolic Activation: NONE, Method: PREINCUBATION) of the same compound?
A: The mutagenic call was “inactive; negative”.

Q: What about the mutagenic call (Test System: AMES SALMONELLA TYPHIMURIUM, Strain/Indicator: TA96(NRC), Metabolic Activation: RAT, LIVER, S-9, AROCLOR 1254, Method: PREINCUBATION) of the same compound?
A: The mutagenic call was “inactive; negative”.

Q: And the mutagenic call (Test System: AMES SALMONELLA TYPHIMURIUM, Strain/Indicator: TA96, Metabolic Activation: NONE, Method: PREINCUBATION)?
A: Its mutagenic call is “active; positive”.

Q: And the mutagenic call (Test System: AMES SALMONELLA TYPHIMURIUM, Strain/Indicator: TA96, Metabolic Activation: NONE, Method: STANDARD PLATE)?
A: The mutagenic call was “active; positive”.

Q: What about the mutagenic call (Test System: AMES SALMONELLA TYPHIMURIUM, Strain/Indicator: TA96, Metabolic Activation: RAT, LIVER, S-9, AROCLOR 1254, Method: PREINCUBATION) of the same compound?
A: The mutagenic call was “active; positive”.

Q: What about the mutagenic call (Test System: AMES SALMONELLA TYPHIMURIUM, Strain/Indicator: TA97, Metabolic Activation: NONE, Method: PREINCUBATION) of the same compound?
A: The mutagenic call was “active; positive”.

Q: What about the mutagenic call (Test System: AMES SALMONELLA TYPHIMURIUM, Strain/Indicator: TA97, Metabolic Activation: NONE, Method: STANDARD PLATE) of the same compound?
A: The mutagenic call was “active; positive”.

Q: And the mutagenic call (Test System: AMES SALMONELLA TYPHIMURIUM, Strain/Indicator: TA97, Metabolic Activation: RAT, LIVER, S-9, AROCLOR 1254, Method: PREINCUBATION)?
A: Its mutagenic call is “active; positive”.

Q: And the mutagenic call (Test System: AMES SALMONELLA TYPHIMURIUM, Strain/Indicator: TA98(NR), Metabolic Activation: NONE, Method: PREINCUBATION)?
A: Its mutagenic call is “active; positive”.

Q: And the mutagenic call (Test System: AMES SALMONELLA TYPHIMURIUM, Strain/Indicator: TA98(NR), Metabolic Activation: NONE, Method: STANDARD PLATE)?
A: Its mutagenic call is “inactive; negative”.

Q: What about the mutagenic call (Test System: AMES SALMONELLA TYPHIMURIUM, Strain/Indicator: TA98(NR), Metabolic Activation: RAT, LIVER, S-9, AROCLOR 1254, Method: PREINCUBATION) of the same compound?
A: The mutagenic call was “active; positive”.

Q: What about the mutagenic call (Test System: AMES SALMONELLA TYPHIMURIUM, Strain/Indicator: TA98, Metabolic Activation: NONE, Method: PREINCUBATION) of the same compound?
A: Its mutagenic call is “active; positive”.

Q: And the mutagenic call (Test System: AMES SALMONELLA TYPHIMURIUM, Strain/Indicator: TA98, Metabolic Activation: NONE, Method: STANDARD PLATE)?
A: The mutagenic call was “active; positive”.

Q: And the mutagenic call (Test System: AMES SALMONELLA TYPHIMURIUM, Strain/Indicator: TA98, Metabolic Activation: RAT, LIVER, S-9, AROCLOR 1254, Method: PREINCUBATION)?
A: The mutagenic call was “active; positive”.

Q: And the mutagenic call (Test System: AMES SALMONELLA TYPHIMURIUM, Strain/Indicator: TA98, Metabolic Activation: RAT, LIVER, S-9, AROCLOR 1254 OR PHENOBARBITOL, Method: STANDARD PLATE)?
A: The mutagenic call was “active; positive”.

Q: And the mutagenic call (Test System: AMES SALMONELLA TYPHIMURIUM, Strain/Indicator: TA98, Metabolic Activation: RAT, LIVER, S-9, KC500 OR PHENOBARBITAL, Method: LIQUID SUSPENSION)?
A: The mutagenic call was “active; positive”.

Q: What about the mutagenic call (Test System: AMES SALMONELLA TYPHIMURIUM, Strain/Indicator: TA100(NR), Metabolic Activation: NONE, Method: PREINCUBATION) of the same compound?
A: The mutagenic call was “active; positive”.

Q: What about the mutagenic call (Test System: AMES SALMONELLA TYPHIMURIUM, Strain/Indicator: TA100(NR), Metabolic Activation: NONE, Method: STANDARD PLATE) of the same compound?
A: The mutagenic call was “inactive; negative”.

Q: And the mutagenic call (Test System: AMES SALMONELLA TYPHIMURIUM, Strain/Indicator: TA100(NR), Metabolic Activation: RAT, LIVER, S-9, AROCLOR 1254, Method: PREINCUBATION)?
A: Its mutagenic call is “active; positive”.

Q: And the mutagenic call (Test System: AMES SALMONELLA TYPHIMURIUM, Strain/Indicator: TA100, Metabolic Activation: NONE, Method: PREINCUBATION)?
A: The mutagenic call was “active; positive”.

Q: And the mutagenic call (Test System: AMES SALMONELLA TYPHIMURIUM, Strain/Indicator: TA100, Metabolic Activation: RAT, LIVER, S-9, AROCLOR 1254, Method: PREINCUBATION)?
A: The mutagenic call was “active; positive”.

Q: And the mutagenic call (Test System: AMES SALMONELLA TYPHIMURIUM, Strain/Indicator: TA100, Metabolic Activation: RAT, LIVER, S-9, AROCLOR 1254 OR PHENOBARBITOL, Method: STANDARD PLATE)?
A: The mutagenic call was “active; positive”.

Q: What about the mutagenic call (Test System: AMES SALMONELLA TYPHIMURIUM, Strain/Indicator: TA100, Metabolic Activation: RAT, LIVER, S-9, KC500 OR PHENOBARBITAL, Method: LIQUID SUSPENSION) of the same compound?
A: Its mutagenic call is “active; positive”.

Q: And the mutagenic call (Test System: AMES SALMONELLA TYPHIMURIUM, Strain/Indicator: TA102(NRD), Metabolic Activation: NONE, Method: PREINCUBATION)?
A: The mutagenic call was “active; positive”.

Q: What about the mutagenic call (Test System: AMES SALMONELLA TYPHIMURIUM, Strain/Indicator: TA102(NRD), Metabolic Activation: RAT, LIVER, S-9, AROCLOR 1254, Method: PREINCUBATION) of the same compound?
A: The mutagenic call was “active; positive”.

Q: And the mutagenic call (Test System: AMES SALMONELLA TYPHIMURIUM, Strain/Indicator: TA102, Metabolic Activation: NONE, Method: PREINCUBATION)?
A: The mutagenic call was “active; positive”.

Q: What about the mutagenic call (Test System: AMES SALMONELLA TYPHIMURIUM, Strain/Indicator: TA102, Metabolic Activation: NONE, Method: STANDARD PLATE) of the same compound?
A: The mutagenic call was “active; positive”.

Q: And the mutagenic call (Test System: AMES SALMONELLA TYPHIMURIUM, Strain/Indicator: TA102, Metabolic Activation: RAT, LIVER, S-9, AROCLOR 1254, Method: PREINCUBATION)?
A: Its mutagenic call is “active; positive”.

Q: And the mutagenic call (Test System: AMES SALMONELLA TYPHIMURIUM, Strain/Indicator: TA104, Metabolic Activation: NONE, Method: STANDARD PLATE)?
A: Its mutagenic call is “inactive; negative”.

Q: And the mutagenic call (Test System: AMES SALMONELLA TYPHIMURIUM, Strain/Indicator: TA1535, Metabolic Activation: NONE, Method: STANDARD PLATE)?
A: The mutagenic call was “inactive; negative”.

Q: What about the mutagenic call (Test System: AMES SALMONELLA TYPHIMURIUM, Strain/Indicator: TA1535, Metabolic Activation: RAT, LIVER, S-9, AROCLOR 1254 OR PHENOBARBITOL, Method: STANDARD PLATE) of the same compound?
A: Its mutagenic call is “inactive; negative”.

Q: And the mutagenic call (Test System: AMES SALMONELLA TYPHIMURIUM, Strain/Indicator: TA1537, Metabolic Activation: NONE, Method: STANDARD PLATE)?
A: Its mutagenic call is “inactive; negative”.

Q: And the mutagenic call (Test System: AMES SALMONELLA TYPHIMURIUM, Strain/Indicator: TA1537, Metabolic Activation: RAT, LIVER, S-9, AROCLOR 1254 OR PHENOBARBITOL, Method: STANDARD PLATE)?
A: Its mutagenic call is “inactive; negative”.

Q: And the mutagenic call (Test System: AMES SALMONELLA TYPHIMURIUM, Strain/Indicator: TA1538, Metabolic Activation: NONE, Method: STANDARD PLATE)?
A: Its mutagenic call is “active; positive”.

Q: What about the mutagenic call (Test System: AMES SALMONELLA TYPHIMURIUM, Strain/Indicator: TA1538, Metabolic Activation: RAT, LIVER, S-9, AROCLOR 1254 OR PHENOBARBITOL, Method: STANDARD PLATE) of the same compound?
A: Its mutagenic call is “active; positive”.

Q: What about the mutagenic call (Test System: E. COLI, Strain/Indicator: WP2, Metabolic Activation: NONE, Method: SPOT) of the same compound?
A: The mutagenic call was “active; positive”.

Q: What about the mutagenic call (Test System: E. COLI, Strain/Indicator: WP2 UVRA, Metabolic Activation: NONE, Method: SPOT) of the same compound?
A: Its mutagenic call is “active; positive”.

Q: And the mutagenic call (Test System: E. COLI, Strain/Indicator: WP2 UVRA, Metabolic Activation: NONE, Method: STANDARD PLATE)?
A: The mutagenic call was “active; positive”.

Q: CC(N)C(=O)O (stereo not drawn) was tested. Which mutagenic call (Test System: AMES SALMONELLA TYPHIMURIUM, Strain/Indicator: TA98, Metabolic Activation: RAT LIVER, S-9, CHLOROPHENE, Method: STANDARD PLATE (COMPOUND HEATED AT 250 DEGREES CELSIUS FOR 20 MIN)) did it give?
A: Its mutagenic call is “inactive; negative”.
